Results published in patent publication US11970515B1, “Crystal form of Brassinosteroid (BR) analogue, and preparation method and use thereof” (CHENGDU NEWSUN CROP SCIENCE CO., LTD., priority 2021, dated 2024).

Legend:
[1] = Stability test of crystal forms in high-temperature environment at 80° C.±2° C.; format: physicochemical
Protocol: Appropriate amounts of the crystal form I and crystal form II were separately placed in a high-temperature environment at 80° C.±2° C. for stability experiments, and the experimental results were shown in Table 1.

Solubility in water = format: physicochemical; settings: different temperatures
Protocol: (§1) 2. Solubility Research • (1) 50 mg of the crystal form I and crystal form II were separately added to a test tube, slowly added with ethanol dropwise at different temperatures while conducting vibration until completely dissolved. Weighing was conducted and a total mass was recorded, converted into volume, expressed as mg/mL. The experimental results were shown in FIG. 11 and FIG. 12. • (2) 50 mg of the crystal form I and crystal form II were separately added to a test tube, slowly added with water dropwise at different temperatures while conducting vibration until completely dissolved. Weighing was conducted and a total mass was recorded, converted into volume, expressed as mg/mL.

corn seeds = assay: Immersing corn seeds to promote germination and growth of corn; format: in vivo; settings: for Bud vigor index / Root vigor index / Germination rate (%): 7th day; for Germination rate (%): seeds immersed 24 h
Protocol: The example of the present disclosure provided use of the novel crystal form I and the novel crystal form II in promoting plant growth, specifically an experiment of immersing corn seeds to promote germination and growth of corn was taken as an example, the steps were as follows:
In the present disclosure, the novel crystal form I was prepared with anhydrous ethanol into a 10 mg/ml mother solution, and used immediately during the experiment.
The agents were prepared according to the experimental design. 20 normal plump corn seeds were selected, placed in the agent, and immersed at 26° C. for 24 h. The seeds were washed with water, placed in a culture box and placed in a constant-temperature incubator for germination. The germination was conducted in 2 periods: 14 h of light illumination, at 28° C.; 10 h in the dark, at 25° C., and for 7 d. Each treatment was repeated 3 times. During the whole experiment, 5 ml of water was regularly added with a pipette at 9:00 every day to keep the culture box moist. After 7 days, the germination rate was counted, the shoot length and root length were measured, and the root vigor and shoot vigor were calculated. Germination rate=germinated number of seeds treated on 7th day/total number of treated seeds×100%; Bud vigor index=germination rate of 7th day×seedling bud length of 7th day; Root vigor index=germination rate of 7th day×seedling root length of 7th day.

Solubility in ethanol = format: physicochemical; settings: different temperatures
Protocol: as §1

tobacco seedlings [2] = assay: Promoting growth of tobacco seedlings (leaf spray, leaf area growth rate); format: in vivo; settings: for Growth-promoting effect (in words): 7 d after treatment; for 7-day leaf area growth rate (%): leaf spray, 7 d
Protocol: The example of the present disclosure provided use of the novel crystal form I and the novel crystal form II in promoting plant growth, specifically an experiment of promoting growth of tobacco seedlings was taken as an example, the steps were as follows:
In the present disclosure, the novel crystal form I and the novel crystal form II each were prepared with anhydrous ethanol into a 10 mg/ml mother solution, and used immediately during the experiment.
Tobacco seedlings with a seedling age of 7 d were transplanted and planted in a cultivation room, and the seedlings were subjected to recovery for 2 d before testing. After the treatment agent was formulated according to the experimental design, the leaves of the tobacco seedlings were evenly sprayed, and each treatment was repeated 3 times, with 2 plants in each repetition, that is, 6 seedlings in each treatment. […] The RGB AREA_MM parameter (leaf area/mm^2) of the tobacco was recorded with a plant phenotype instrument before and 7 d […], and a growth rate of the leaf area was calculated to evaluate a growth-promoting effect of the drug. The formula for calculating a leaf area growth rate was as follows: Growth rate (%)=(final leaf area−initial leaf area)×100%/initial leaf area

tobacco seedlings [3] = assay: Promoting cold resistance of tobacco (chlorophyll fluorescence after 4° C. cold injury); format: in vivo
Protocol: The example of the present disclosure provided use of the novel crystal form II in promoting stress resistance of plants, specifically an experiment of promoting cold resistance of tobacco was taken as an example, the steps were as follows:
In the present disclosure, the novel crystal form II was prepared with anhydrous ethanol into a 10 mg/ml mother solution, and used immediately during the experiment.
After the treatment agents were prepared according to Table 6, the leaves of the tobacco seedlings were evenly sprayed in the morning. […] After 1 d of recovery, cold injury (4° C.) treatment was conducted, while other conditions remained the same as those during normal culture. The chlorophyll fluorescence QY-max parameter (theoretical maximum photosynthetic capacity) and Fv/Fm (maximum photon yield of PSII) of tobacco were recorded before drug treatment, after 6 h and 24 h of low-temperature treatment, and after 24 h of recovery at room temperature (25° C.) separately with a plant phenotype instrument.
QY-max represents the theoretical maximum photosynthetic capacity of plants, and the smaller its reduction rate, the better the plant's low-temperature resistance. Fv/Fm-lss represents the maximum photon yield of PSII, similar to QY-max, the smaller its reduction rate, the better the plant's low-temperature resistance. […] Afterwards, each treatment was placed at room temperature (25° C.) for recovery.

[4] = 0.003 ppm, low-temperature (4° C.) treatment for 6 h
[5] = 0.003 ppm, low-temperature (4° C.) treatment for 24 h
[6] = 0.003 ppm, room-temperature (25° C.) recovery for 24 h
[7] = 0.03 ppm, low-temperature (4° C.) treatment for 6 h
[8] = 0.03 ppm, low-temperature (4° C.) treatment for 24 h
[9] = 0.03 ppm, room-temperature (25° C.) recovery for 24 h
[10] = 0.3 ppm, low-temperature (4° C.) treatment for 6 h
[11] = 0.3 ppm, low-temperature (4° C.) treatment for 24 h
[12] = 0.3 ppm, room-temperature (25° C.) recovery for 24 h

CC(C)(O)CC[C@@H](O)[C@](C)(O)C1CC[C@@]2(O)[C@H]3CC(=O)[C@@H]4C[C@@H](O)[C@@H](O)C[C@]4(C)[C@H]3CC[C@]12C (single isomer, unassigned) [Novel crystal form I]
Stability in high-temperature environment (in words) [1]: highly stable in the high-temperature environment, and no crystal form change occurred
Content (%) ([1]; test time 0 d): 99.98%
Content of other substances (%) ([1]; test time 0 d): 0.02%
XRPD ([1]; test time 0 d): Unchanged
Content (%) ([1]; test time 5 d): 99.93%
Content of other substances (%) ([1]; test time 5 d): 0.07%
XRPD ([1]; test time 5 d): Unchanged
Content (%) ([1]; test time 10 d): 99.96%
Content of other substances (%) ([1]; test time 10 d): 0.04%
XRPD ([1]; test time 10 d): Unchanged
Solubility in water (in words) (Solubility in water): desirable solubility
Bud vigor index (corn seeds; 0.003 ppm): 7.77 ± 0.36
Root vigor index (corn seeds; 0.003 ppm): 8.80 ± 0.29
Germination rate (%) (corn seeds; 0.003 ppm): 72.12 ± 1.15%
Effect on root and bud vigor indexes versus control CK (in words) (corn seeds; 0.03 ppm): best effect, which was obviously better than that of the control CK
Germination effect on corn compared with the water control (in words) (corn seeds; 0.03 ppm): germination-promoting effect
Bud vigor index (corn seeds; 0.03 ppm): 10.93 ± 0.17
Root vigor index (corn seeds; 0.03 ppm): 10.89 ± 0.24
Germination rate (%) (corn seeds; 0.03 ppm): 77.34 ± 1.99%
Bud vigor index (corn seeds; 0.3 ppm): 9.26 ± 0.24
Root vigor index (corn seeds; 0.3 ppm): 9.77 ± 0.53
Germination rate (%) (corn seeds; 0.3 ppm): 75.38 ± 2.37%
Effect on root and bud vigor indexes (in words) (corn seeds; in vivo): effect of improving the root vigor index and bud vigor index
Solubility in ethanol (in words) (Solubility in ethanol): desirable solubility
Growth-promoting effect (in words) (tobacco seedlings [2]; 0.003 ppm): obvious growth-promoting effects
7-day leaf area growth rate (%) (tobacco seedlings [2]; 0.003 ppm): 179.02 ± 0.15%
7-day leaf area growth rate (%) (tobacco seedlings [2]; 0.03 ppm): 166.45 ± 0.18%
7-day leaf area growth rate (%) (tobacco seedlings [2]; 0.3 ppm): 145.98 ± 0.39%

CC(C)(O)CC[C@@H](O)[C@](C)(O)C1CC[C@@]2(O)[C@H]3CC(=O)[C@@H]4C[C@@H](O)[C@@H](O)C[C@]4(C)[C@H]3CC[C@]12C (single isomer, unassigned) [Novel crystal form II]
Stability in high-temperature environment (in words) [1]: highly stable in the high-temperature environment, and no crystal form change occurred
Content (%) ([1]; test time 0 d): 99.87%
Content of other substances (%) ([1]; test time 0 d): 0.13%
XRPD ([1]; test time 0 d): Unchanged
Content (%) ([1]; test time 5 d): 99.84%
Content of other substances (%) ([1]; test time 5 d): 0.16%
XRPD ([1]; test time 5 d): Unchanged
Content (%) ([1]; test time 10 d): 99.87%
Content of other substances (%) ([1]; test time 10 d): 0.13%
XRPD ([1]; test time 10 d): Unchanged
Solubility in water (in words) (Solubility in water): desirable solubility
Fv/Fm-lss change rate (%) (tobacco seedlings [3]; [4]): −30.1 ± 0.22%
QY-max change rate (%) (tobacco seedlings [3]; [4]): −10.4 ± 0.13%
Fv/Fm-lss change rate (%) (tobacco seedlings [3]; [5]): −46.1 ± 0.28%
QY-max change rate (%) (tobacco seedlings [3]; [5]): −31.0 ± 0.18%
Fv/Fm-lss change rate (%) (tobacco seedlings [3]; [6]): −16.2 ± 0.27%
QY-max change rate (%) (tobacco seedlings [3]; [6]): −10.0 ± 0.24%
Reduction rate of QY-max and Fv/Fm-lss versus water control (in words) (tobacco seedlings [3]; 0.03 ppm, after 6 h of low-temperature treatment): significantly lower than that of the water control
Recovery effect, comparison of concentrations (in words) (tobacco seedlings [3]; 0.03 ppm, after 24 h of recovery at room temperature): the best
Fv/Fm-lss change rate (%) (tobacco seedlings [3]; [7]): −14.3 ± 0.13%
QY-max change rate (%) (tobacco seedlings [3]; [7]): −3.6 ± 0.33%
Fv/Fm-lss change rate (%) (tobacco seedlings [3]; [8]): −33.4 ± 0.12%
QY-max change rate (%) (tobacco seedlings [3]; [8]): −27.6 ± 0.16%
Fv/Fm-lss change rate (%) (tobacco seedlings [3]; [9]): 0.3 ± 0.16%
QY-max change rate (%) (tobacco seedlings [3]; [9]): −0.6 ± 0.18%
Fv/Fm-lss change rate (%) (tobacco seedlings [3]; [10]): −26.4 ± 0.27%
QY-max change rate (%) (tobacco seedlings [3]; [10]): −7.9 ± 0.25%
Fv/Fm-lss change rate (%) (tobacco seedlings [3]; [11]): −44.4 ± 0.25%
QY-max change rate (%) (tobacco seedlings [3]; [11]): −30.0 ± 0.27%
Fv/Fm-lss change rate (%) (tobacco seedlings [3]; [12]): −4.5 ± 0.21%
QY-max change rate (%) (tobacco seedlings [3]; [12]): −5.2 ± 0.13%
Recovery effect versus clean water control (in words) (tobacco seedlings [3]; each concentration, after 24 h of recovery at room temperature): better than that of the clean water control
Low-temperature resistance, summary (in words) (tobacco seedlings [3]; in vivo): bioactivity of anti-low temperature
Solubility in ethanol (in words) (Solubility in ethanol): desirable solubility
Growth-promoting effect (in words) (tobacco seedlings [2]; 0.003 ppm): obvious growth-promoting effects
7-day leaf area growth rate (%) (tobacco seedlings [2]; 0.003 ppm): 169.02 ± 0.26%
7-day leaf area growth rate (%) (tobacco seedlings [2]; 0.03 ppm): 153.44 ± 0.19%
7-day leaf area growth rate (%) (tobacco seedlings [2]; 0.3 ppm): 150.31 ± 0.39%
